System: C57Bl6 mice on a high fat diet
Assay: GPR120 DIO Mice OGTT Screening
Format: in vivo, mouse
Details: 10 mg/kg dosed 30 min before glucose, glucose AUC −30 to 90 min, change from vehicle, printed as %
Description: 18-22 week old, C57Bl6 mice on a high fat diet (60% HFD) for 12-16 weeks (ave. body weight ˜37-41 g) were fasted for 6 hr, with removal of food occurring at 7 am on the morning of the study. The animals were sorted into treatment groups the day before the study by body weight. Animals outside the bounds of ˜30-50 g were left out of the study. The animals had been handled and shammed a total of 5-8 days (1-3 days immediately prior to the study). Glucose (in 1 ml syringes) was drawn up the morning of the study. Test compounds were kept spinning and were only drawn into 1 ml syringes prior to study commencement. Animals were bled via tail snip to determine basal glucose levels prior to dosing of treatments. […]
Animals were moved into the testing room at ˜9-11 am, to yield them time to acclimate. […] All groups were dosed 30 minutes prior to glucose administration at a dose volume of 10 ml/kg (the dose volume was calculated separately for each individual animal). […]
Thirty minutes after the first dose (with test compound) animals were bled again for a second baseline, or T=0, and immediately dosed with glucose (20% solution; TEKNOVA, 250 ml sterile bottle w/catalogue number G0525) via a PO injection. The exact dose volume for glucose was also calculated separately for each individual animal.
Blood glucose was measured at 15, 30, 45, 60, and 90 minutes post-glucose administration via the snipped tail. […]

SMILES	DIO Lowering Glucose AUC (−30 to 90) @10 mg/kg [%]
Cc1cc2c(F)c(OC(F)(F)F)c(F)c(COc3ccc(CCC(=O)O)c(F)c3F)c2o1 [Compound 75, 3-(4-{[4,6-Difluoro-2-methyl-5-(trifluoromethoxy)-1-benzofuran-7-yl]methoxy}-2,3-difluorophenyl)propanoic acid]	−31
Cc1cc2cc(Cl)c(C)c(COc3ccc(CCC(=O)O)c(C)c3C)c2o1 [Compound 85, 3-{4-[(5-Chloro-2,6-dimethyl-1-benzofuran-7-yl)methoxy]-2,3-dimethylphenyl}propanoic acid]	−37

From patent publication US9562053B2, “Benzo-fused heterocyclic derivatives useful as agonists of GPR120” (Janssen Pharmaceutica NV, priority 2013, dated 2017)
